# Test results reported in US20260274876A1, “3-PYRROLIDINE-INDOLE DIMERS AS SEROTONERGIC AGENTS USEFUL FOR THE TREATMENT OF DISORDERS RELATED THERETO” (MINDSET PHARMA INC., priority 2022, published 2026).
# Columns and labels:
# [1] = Intestinal mucosal permeation using Caco-2 cell monolayers; settings: human; for Papp A→B at 2 h, 5 µM / Papp B→A at 2 h, 5 µM / efflux ratio at 2 h, 5 μM: Caco-2, pH 7.4
# Procedure: Plate was returned to incubator.
# Vortexed for 5 minutes. […] Incubated at 37° C. for 30 minutes.
# human 5-HT2A receptor = human 5-HT2A receptor (Homo sapiens, UniProt P28223); assay: Human 5-HT2A radioligand binding assay ([3H]-ketanserin)
# Procedure: The objective of this study was to evaluate the binding properties of exemplary compounds of Formula I on 5-hydroxytryptamine receptor 2A (5-HT2A).
# • 1. The assay buffer was prepared following the table below.
# • 2. 8 doses of reference and test compounds starting from 10 mM stock solution as required was prepared by 5-fold serial dilutions with 100% (v/v) DMSO. • 3. UniFilter-96 GF/B plate was pretreated: • i. 50 μl/well of 0.5% (v/v) PEI was added to […]. The plates were sealed and incubated at […] for 3 hrs. • ii. After incubation, the plates were washed 3 times with ice-cold wash buffer (50 mM Tris, pH7.4). • 4. The assay plate was prepared: • i. Cell membrane was diluted with assay buffer and 330 μl/well was added to 96 round deep well plates to reach a concentration of 20 μg/well. • ii. 8 concentrations of reference or test compounds were prepared and 110 μl/well was added to 96 round deep well plates. • iii. [3H]-ketanserin was diluted with assay buffer to 5 nM (5×final concentration) and 110 μl/well was added to 96 round deep well plates. • 5. The plate was centrifuged at 1000 rpm for 30 secs and then agitated at 600 rpm, R.T. for 5 min. • 6. The plates were sealed and the plate incubated at 279C for 90 min. • 7. The incubation was stopped by vacuum filtration onto GF/B filter plates followed by 4 times washing with ice-cold wash buffer (50 mM Tris, pH7.4). • 8. The plates were dried at 379C for 45 min. • 8. The filter plates were sealed and 40 μl/well of scintillation cocktail was added. • 10. The plate was read by using a Microbeta^2 microplate counter.
# • 1. For reference and test compounds, the results were expressed as % Inhibition, using the normalization equation: N=100−100×(U−C2)/(C1−C2), where U is the unknown value, C1 is the average of high controls, and C2 is the average of low controls. • 2. The IC50 was determined by fitting percentage of inhibition as a function of compound concentrations with Hill equation using XLfit.
# [2] = Liver microsomes stability, human; settings: human liver microsomes, without cofactors, 60 min
# Procedure: (§1) 40 μL of 10 mM NADPH solution was added to each well. The final concentration of NADPH was 1 mM. The negative control samples were prepared by replacing NADPH with 40 μL of ultra-pure H2O. Samples were prepared in duplicate. Negative controls were prepared in singlet.
# (§2) This study was performed in duplicate.
# (§3) LC/MS analysis was performed for all samples from this study using a Shimadzu liquid chromatograph separation system equipped with degasser DGU-20A5R; solvent delivery unit LC-30AD; system controller SIL-30AC; column oven CTO-30A; CTC Analytics HTC PAL System. Mass spectrometric analysis was performed using a Triple Quad™ 5500 instrument.
# (§4) All calculations were carried out using Microsoft Excel.
# (§5) All calculations were carried out using Microsoft Excel. Peak areas were determined from extracted ion chromatograms.
# [3] = Liver microsomes stability, rat; settings: rat liver microsomes, 60 min
# Procedure: as §1, §2, §3, §4, §5
# [4] = Liver microsomes stability, mouse; settings: mouse liver microsomes, 60 min
# Procedure: as §1, §2, §3, §4, §5
# Plasma stability, rat = assay type: in vitro ADME
# Procedure: (§6) • a. […] The final concentration of organic solvents was 0.5%. The assay was performed in duplicated. • b.
# as §4
# Plasma stability, human = assay type: in vitro ADME
# Procedure: as §6, §4
# Plasma stability, mouse = assay type: in vitro ADME
# Procedure: as §6, §4
# [5] = Caco-2, pH 7.4, Percentage recovery (%) A→B, Caco-2, A→B
# [6] = Caco-2, pH 7.4, Percentage recovery (%) B→A, Caco-2, B→A
# [7] = 37° C., N.A. = no peak detected at 30 min
# Chain of human 5-HT2A receptor (P28223 whole entry): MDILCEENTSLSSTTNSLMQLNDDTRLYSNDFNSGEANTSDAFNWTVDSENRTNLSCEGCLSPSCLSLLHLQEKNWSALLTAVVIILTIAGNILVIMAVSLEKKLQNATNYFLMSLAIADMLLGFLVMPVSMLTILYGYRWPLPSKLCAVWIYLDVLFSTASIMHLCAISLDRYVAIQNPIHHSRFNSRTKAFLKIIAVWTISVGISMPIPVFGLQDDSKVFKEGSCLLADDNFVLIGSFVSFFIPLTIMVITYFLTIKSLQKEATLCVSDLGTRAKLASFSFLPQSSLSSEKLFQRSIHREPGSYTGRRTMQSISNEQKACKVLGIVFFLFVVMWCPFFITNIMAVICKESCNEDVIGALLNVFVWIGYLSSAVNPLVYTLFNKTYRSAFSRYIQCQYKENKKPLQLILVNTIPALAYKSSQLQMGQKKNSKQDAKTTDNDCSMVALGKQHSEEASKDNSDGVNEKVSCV
compound,measurement,setting,value
COc1cc2nc(N3CCN(C(=O)c4ccco4)CC3)nc(N)c2cc1OC [Prazosin],"Papp A→B at 2 h, 5 µM",[1],10.1 ×10⁻⁶ cm/s
same,"Papp B→A at 2 h, 5 µM",[1],33.1 ×10⁻⁶ cm/s
same,"efflux ratio at 2 h, 5 μM",[1],3.28
same,"recovery at 2 h, 5 μM",[1]; [5],79.5%
same,"recovery at 2 h, 5 μM",[1]; [6],105%
"CN(C)CCc1c[nH]c2cccc(OP(=O)(O)O)c12 [Psilocybin, 4-phosphoryloxy-N,N-dimethyltrypatmine]",IC50,human 5-HT2A receptor,4.25 µM
same,"Papp A→B at 2 h, 5 µM",[1],0.06 ×10⁻⁶ cm/s
same,"Papp B→A at 2 h, 5 µM",[1],0.03 ×10⁻⁶ cm/s
same,"efflux ratio at 2 h, 5 μM",[1],0.45
same,"recovery at 2 h, 5 μM",[1]; [5],41.4%
same,"recovery at 2 h, 5 μM",[1]; [6],104%
"O=C(O)Cc1ccccc1Nc1c(Cl)cccc1Cl [Diclofenac, reference compound]","Remaining Percentage (%) after 60 min, Human, Without cofactors",[2],95.90%
same,"Remaining Percentage (%) after 60 min, Rat, With cofactors",[3]; with cofactors,7.11%
same,"Remaining Percentage (%) after 60 min, Rat, Without cofactors",[3]; without cofactors,97.86%
same,"Remaining Percentage (%) after 60 min, Mouse, With cofactors",[4]; with cofactors,35.94%
same,"Remaining Percentage (%) after 60 min, Mouse, Without cofactors",[4]; without cofactors,97.86%
C[C@H]1O[C@@H](O[C@H]2[C@@H](O)C[C@H](O[C@H]3[C@@H](O)C[C@H](O[C@H]4CC[C@@]5(C)[C@H](CC[C@@H]6[C@@H]5C[C@@H](O)[C@]5(C)[C@@H](C7=CC(=O)OC7)CC[C@]65O)C4)O[C@@H]3C)O[C@@H]2C)C[C@H](O)[C@@H]1O [Digoxin],"Papp A→B at 2 h, 5 µM",[1],0.53 ×10⁻⁶ cm/s
same,"Papp B→A at 2 h, 5 µM",[1],18.9 ×10⁻⁶ cm/s
same,"efflux ratio at 2 h, 5 μM",[1],35.4
same,"recovery at 2 h, 5 μM",[1]; [5],86.6%
same,"recovery at 2 h, 5 μM",[1]; [6],104%
"CC[C@H](C)C(=O)O[C@H]1C[C@@H](C)C=C2C=C[C@H](C)[C@H](CC[C@@H]3C[C@@H](O)CC(=O)O3)[C@H]21 [Lovastatin, reference compound]",Remaining Percentage (%) 0 min,"Plasma stability, rat; 0 min",100.00%
same,Remaining Percentage (%) 30 min,"Plasma stability, rat; 30 min",0.00%
same,Remaining Percentage (%) 60 min,"Plasma stability, rat; 60 min",0.00%
same,Remaining Percentage (%) 120 min,"Plasma stability, rat; 120 min",0.00%
same,Remaining Percentage (%) 180 min,"Plasma stability, rat; 180 min",0.00%
same,Remaining Percentage (%) 240 min,"Plasma stability, rat; 240 min",0.00%
CC(C)NCC(O)COc1cccc2ccccc12 (stereo not shown) [Propranolol],"Papp A→B at 2 h, 5 µM",[1],33.5 ×10⁻⁶ cm/s
same,"Papp B→A at 2 h, 5 µM",[1],23.1 ×10⁻⁶ cm/s
same,"efflux ratio at 2 h, 5 μM",[1],0.69
same,"recovery at 2 h, 5 μM",[1]; [5],91.3%
same,"recovery at 2 h, 5 μM",[1]; [6],92.6%
"CC(C)[N+](C)(CCOC(=O)C1c2ccccc2Oc2ccccc21)C(C)C [Propantheline, reference compound]",Remaining Percentage (%) 0 min,"Plasma stability, human; 0 min",100.00%
same,half-life at 5 μM,"Plasma stability, human; [7]",9.53 min
same,Remaining Percentage (%) 30 min,"Plasma stability, human; 30 min",18.68%
same,Remaining Percentage (%) 60 min,"Plasma stability, human; 60 min",1.28%
same,Remaining Percentage (%) 0 min,"Plasma stability, mouse; 0 min",100.00%
same,half-life at 5 μM,"Plasma stability, mouse; [7]",34.4 min
same,Remaining Percentage (%) 30 min,"Plasma stability, mouse; 30 min",65.32%
same,Remaining Percentage (%) 60 min,"Plasma stability, mouse; 60 min",32.49%
same,Remaining Percentage (%) 120 min,"Plasma stability, mouse; 120 min",9.12%
same,Remaining Percentage (%) 180 min,"Plasma stability, mouse; 180 min",2.90%
same,Remaining Percentage (%) 240 min,"Plasma stability, mouse; 240 min",0.87%
